Data: US10995068B2, “Synthetic sphingolipid-like molecules, drugs, methods of their synthesis and methods of treatment” (The Regents of the University of California, priority 2015, dated 2021)

Test system: non-transformed murine OP9 bone marrow stromal cells and primary murine embryonic fibroblasts (MEFs)
Test: Sensitivity of non-transformed cells versus cancer cell lines
Type: cell-based
Conditions: OP9 and primary MEFs versus DLD-1, LS180, SW48, SW480, SW620, MDA-MB-231, PANC-1
Procedure: Consistent with the bioenergetic mechanism described supra, cells with a higher anabolic rate should be more sensitive to sphingolipid-like compounds. In exemplary experiments testing this mechanism, murine FL5.12 cells with different anabolic rates were treated with SH-BC-893. The anabolic rate of FL5.12 cells can be titrated by modulating the levels of their required growth factor, IL-3; comparing FL5.12 cells grown in high and low IL-3 allows the impact of elevated growth factor signaling and anabolism to be evaluated in a constant genetic background. High concentrations of IL-3 drive aerobic glycolysis and a rapid doubling time (12 h). Reducing IL-3 levels slows proliferation and increases oxidative phosphorylation without compromising cell viability (FIGS. 53A and 53B). […] Many of these cancer cell lines carry activating mutations in Ras. […]
Cell culture and reagents. […] Cell viability was measured by vital dye exclusion using either propidium iodide or DAPI at 1 μg/ml. Analysis of cell surface 4F2hc levels with PE-conjugated anti-CD98 was restricted to viable cells as determined by DAPI exclusion. Anchorage-independent growth of SW620 cells was measured in DMEM-10 containing 0.35% low melt agarose with a 0.5% agarose bottom layer. […]

CCCCCCCCc1ccc([C@H]2CCN[C@@H]2CO)cc1.Cl [Compound 5, (2S,3R)-2-(hydroxymethyl)-3-(4-octylphenyl)Pyrrolidinium chloride]
sensitivity compared with human cancer cell lines: less sensitive
